This is an account of results in PubChem BioAssay (NCI).

Some test systems named below: CCRF-CEM leukemia; COLO 205 colon; HCT-15 colon; HL-60(TB) leukemia; IGROV1 ovarian; LOX IMVI melanoma; M14 melanoma; MCF7 breast; MDA-MB-435; MOLT-4 leukemia; OVCAR-3 ovarian; OVCAR-8 ovarian; RPMI-8226 leukemia; SK-MEL-5 melanoma; SN12C renal; TK-10 renal; U251 CNS; UACC-257 melanoma; SNB-19 CNS.
Holding throughout (assay): DTP human tumour cell line panel, 48 h

Molecules are shown by their SMILES.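 Assay format: 96-well plates, 48-hour exposure. TGI: total growth inhibition.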

Broadly, the TGI is the concentration giving total growth inhibition. Turning to `O=C(CC(C(=O)c1ccsc1)c1ccccc1)c1ccccc1` (stereo unspecified), the TGI in the test on CCRF-CEM leukemia is above 100 µM; with COLO 205 colon it was above 100 µM; in the test on HCT-15 colon, above 100 µM; with HL-60(TB) leukemia it was 23 µM; with IGROV1 ovarian it was above 100 µM; in the test with LOX IMVI melanoma, above 100 µM. The total growth inhibition concentration (TGI) in the test with M14 melanoma, in the test with MCF7 breast, in the test on MDA-MB-435, in the test with MOLT-4 leukemia, in the test on OVCAR-3 ovarian and in the test on OVCAR-8 ovarian was above 100 µM throughout. The TGI in the test on RPMI-8226 leukemia, with SK-MEL-5 melanoma, in the test on SN12C renal, in the test on TK-10 renal, in the test on U251 CNS and with UACC-257 melanoma was above 100 µM throughout.
As for `CC1=C(CO)C2=C(C)C3(CC3)[C@@](C)(O)C(=O)C2=C1`, the TGI with CCRF-CEM leukemia was above 28.6 µM; in the test on COLO 205 colon, 0.298 µM; in the test with HCT-15 colon, 5.17 µM; in the test with HL-60(TB) leukemia it was 1.79 µM; with IGROV1 ovarian it was 0.529 µM; in the test on LOX IMVI melanoma it was 3.14 µM. Moreover, the TGI in the test with M14 melanoma was 0.698 µM; in the test with MCF7 breast, 1.87 µM; in the test with MDA-MB-435 it was 5.81 µM; in the test on OVCAR-3 ovarian it was 0.735 µM; with OVCAR-8 ovarian it was 0.631 µM; with RPMI-8226 leukemia it was above 81.6 µM. For the same compound, the TGI was 0.374 µM in the test on SK-MEL-5 melanoma; 5.21 µM in the test with SN12C renal; 10.6 µM in the test on SNB-19 CNS; 1.13 µM in the test on TK-10 renal; 0.487 µM in the test with UACC-257 melanoma.
For `CC(C)[Si]1(C(C)C)OCC2OC3(CO)C(Oc4nc(=O)ccn43)C2O[Si](C(C)C)(C(C)C)O1` (stereo unspecified), the TGI with CCRF-CEM leukemia is 24.6 µM; in the test on COLO 205 colon, 22 µM; with HCT-15 colon, 28.5 µM; in the test with HL-60(TB) leukemia, 27.1 µM; with IGROV1 ovarian it was 33 µM; in the test on LOX IMVI melanoma, 28.7 µM. The total growth inhibition concentration (TGI) in the test with M14 melanoma worked out at 30.4 µM; with MCF7 breast, 18.6 µM; in the test with MDA-MB-435, 31.4 µM; in the test on MOLT-4 leukemia it was 24.8 µM; in the test on OVCAR-8 ovarian it was 31.8 µM; in the test with RPMI-8226 leukemia it was 23.9 µM. For the same compound, the TGI amounted to 32.9 µM in the test with SK-MEL-5 melanoma; 32.7 µM with SNB-19 CNS; 32.1 µM in the test on TK-10 renal; 28.1 µM with U251 CNS; 30.1 µM in the test with UACC-257 melanoma.
Consider `CC(=O)NC1=N/C(=C\c2ccc(Cl)cc2)C(=O)N1/C=C1\C(=O)Oc2ccccc2C1=O`, for which the TGI in the test with CCRF-CEM leukemia, in the test with COLO 205 colon, with HCT-15 colon, with HL-60(TB) leukemia, in the test with IGROV1 ovarian and with LOX IMVI melanoma was above 100 µM in each case. For the same compound, the total growth inhibition concentration (TGI) in the test on M14 melanoma, with MCF7 breast, with MDA-MB-435, in the test with MOLT-4 leukemia, in the test on OVCAR-3 ovarian and in the test with OVCAR-8 ovarian was above 100 µM in each case. Moreover, the concentration for total growth inhibition (TGI) in the test with RPMI-8226 leukemia, in the test with SK-MEL-5 melanoma, in the test on SN12C renal, in the test on SNB-19 CNS, with U251 CNS and with UACC-257 melanoma was above 100 µM throughout.
As for `CC1(C)OC[C@@H]([C@H](O)C2C=CC(=O)S2)O1` (stereo partly specified), the concentration for total growth inhibition (TGI) was 97.9 µM in the test on CCRF-CEM leukemia; 40.5 µM with COLO 205 colon; 35.5 µM in the test with HCT-15 colon; above 100 µM with HL-60(TB) leukemia; 31.7 µM in the test on LOX IMVI melanoma; above 100 µM in the test with M14 melanoma. The TGI with MCF7 breast is above 100 µM; in the test on MDA-MB-435, above 100 µM; in the test on MOLT-4 leukemia it was 75.2 µM; in the test on OVCAR-3 ovarian, above 100 µM; in the test on OVCAR-8 ovarian, 56.4 µM; with RPMI-8226 leukemia, 53.4 µM. Moreover, the TGI was 45.7 µM with SK-MEL-5 melanoma; above 100 µM in the test on SN12C renal; above 100 µM in the test on SNB-19 CNS; above 100 µM in the test on TK-10 renal; 90.4 µM in the test on U251 CNS; above 100 µM with UACC-257 melanoma.
As for `Cc1ncc([N+](=O)[O-])n1CCNCCCCn1ccnc1[N+](=O)[O-]`, the TGI with CCRF-CEM leukemia, with COLO 205 colon, in the test on HCT-15 colon, with HL-60(TB) leukemia, in the test with IGROV1 ovarian and with LOX IMVI melanoma was above 100 µM in each case. Moreover, the TGI in the test on M14 melanoma, in the test with MCF7 breast, with MDA-MB-435, in the test with MOLT-4 leukemia, in the test with OVCAR-3 ovarian and in the test with OVCAR-8 ovarian was above 100 µM throughout. For the same compound, the TGI in the test on RPMI-8226 leukemia, in the test with SK-MEL-5 melanoma, in the test on SN12C renal, in the test on TK-10 renal, with U251 CNS and with UACC-257 melanoma was above 100 µM each time.
